Data as given in patent publication US20100092526A1, “NANOEMULSION THERAPEUTIC COMPOSITIONS AND METHODS OF USING THE SAME” (NanoBio Corporation, priority 2008, published 2010).
Converted amounts (≈) assume the structure as drawn. Read-outs that look alike come from different tables or passages of the source.

Tests used:
Acinetobacter baumannii = test: MIC/MBC against clinical isolates (CLSI, alamar blue); conditions: Acinetobacter baumannii
[1] = system: Stenotrophomonas maltophilia; test: MIC/MBC against CF isolates (CLSI, alamar blue); conditions: Stenotrophomonas maltophilia
Burkholderia cenocepacia = test: MIC/MBC against CF isolates (CLSI, alamar blue); conditions: Burkholderia cenocepacia
[2] = CF Stenotrophomonas isolate NB41
[3] = CF Stenotrophomonas isolate NB42
[4] = CF Stenotrophomonas isolate NB43
[5] = CF Stenotrophomonas isolate NB44
[6] = CF Stenotrophomonas isolate NB45
[7] = CF Stenotrophomonas isolate Steno 1
[8] = CF Stenotrophomonas isolate Steno 2
[9] = CF Stenotrophomonas isolate Steno 3
[10] = CF Stenotrophomonas isolate Steno 4
[11] = CF Stenotrophomonas isolate Steno 6
[12] = CF Stenotrophomonas isolate Steno 8

Compound: CO[C@@]1(NC(=O)Cc2cccs2)C(=O)N2C(C(=O)O)=C(COC(N)=O)CS[C@@H]21 [Cefoxitin]
- MBC (Acinetobacter baumannii; Acinetobacter isolate NB36): 128 µg/mL (≈ 299 µM)
- MIC (Acinetobacter baumannii; Acinetobacter isolate NB36): 128 µg/mL (≈ 299 µM)
- MBC (Acinetobacter baumannii; Acinetobacter isolate NB37): > 256 µg/mL
- MIC (Acinetobacter baumannii; Acinetobacter isolate NB37): > 256 µg/mL
- MBC (Acinetobacter baumannii; Acinetobacter isolate NB38): > 256 µg/mL
- MIC (Acinetobacter baumannii; Acinetobacter isolate NB38): > 256 µg/mL
- MBC (Acinetobacter baumannii; Acinetobacter isolate NB39): > 256 µg/mL
- MIC (Acinetobacter baumannii; Acinetobacter isolate NB39): > 256 µg/mL
- MBC (Acinetobacter baumannii; Acinetobacter isolate NB40): > 256 µg/mL
- MIC (Acinetobacter baumannii; Acinetobacter isolate NB40): > 256 µg/mL
- MBC (Acinetobacter baumannii; read-out: MBC 50, 10 Acinetobacter isolates): > 256 µg/mL
- MIC50 [1]: > 256 µg/mL
- MIC90 [1]: > 256 µg/mL
- MBC [1, 2]: > 256 µg/mL
- MIC [1, 2]: > 256 µg/mL
- MBC [1, 3]: > 256 µg/mL
- MIC [1, 3]: > 256 µg/mL
- MBC [1, 4]: > 256 µg/mL
- MIC [1, 4]: > 256 µg/mL
- MBC [1, 5]: > 256 µg/mL
- MIC [1, 5]: 256 µg/mL (≈ 599 µM)
- MBC [1, 6]: > 256 µg/mL
- MIC [1, 6]: > 256 µg/mL
- MBC [1, 7]: > 256 µg/mL
- MIC [1, 7]: > 256 µg/mL
- MBC [1, 8]: > 256 µg/mL
- MIC [1, 8]: > 256 µg/mL
- MBC [1, 9]: > 256 µg/mL
- MIC [1, 9]: 256 µg/mL (≈ 599 µM)
- MBC [1, 10]: 256 µg/mL (≈ 599 µM)
- MIC [1, 10]: 256 µg/mL (≈ 599 µM)
- MBC [1, 11]: 256 µg/mL (≈ 599 µM)
- MIC [1, 11]: 128 µg/mL (≈ 299 µM)
- MBC [1, 12]: > 256 µg/mL
- MIC [1, 12]: > 256 µg/mL
- MBC ([1]; read-out: MBC 50, 11 CF Stenotrophomonas isolates): > 256 µg/mL
- MIC90 (Burkholderia cenocepacia): 256 µg/mL (≈ 599 µM)
- MIC50 (Burkholderia cenocepacia; 10 CF Burkholderia isolates): 128 µg/mL (≈ 299 µM)
- MBC (Burkholderia cenocepacia; CF Burkholderia isolate NB21): > 256 µg/mL
- MIC (Burkholderia cenocepacia; CF Burkholderia isolate NB21): 256 µg/mL (≈ 599 µM)
- MBC (Burkholderia cenocepacia; CF Burkholderia isolate NB22): 256 µg/mL (≈ 599 µM)
- MIC (Burkholderia cenocepacia; CF Burkholderia isolate NB22): 128 µg/mL (≈ 299 µM)
- MBC (Burkholderia cenocepacia; CF Burkholderia isolate NB23): > 256 µg/mL
- MIC (Burkholderia cenocepacia; CF Burkholderia isolate NB23): > 256 µg/mL
- MBC (Burkholderia cenocepacia; CF Burkholderia isolate NB24): > 256 µg/mL
- MIC (Burkholderia cenocepacia; CF Burkholderia isolate NB24): 128 µg/mL (≈ 299 µM)
- MBC (Burkholderia cenocepacia; CF Burkholderia isolate NB25): 256 µg/mL (≈ 599 µM)
- MIC (Burkholderia cenocepacia; CF Burkholderia isolate NB25): 128 µg/mL (≈ 299 µM)
- MBC (Burkholderia cenocepacia; CF Burkholderia isolate NB26): 256 µg/mL (≈ 599 µM)
- MIC (Burkholderia cenocepacia; CF Burkholderia isolate NB26): 128 µg/mL (≈ 299 µM)
- MBC (Burkholderia cenocepacia; CF Burkholderia isolate NB27): > 256 µg/mL
- MIC (Burkholderia cenocepacia; CF Burkholderia isolate NB27): 128 µg/mL (≈ 299 µM)
- MBC (Burkholderia cenocepacia; CF Burkholderia isolate NB28b): 16 µg/mL (≈ 37.4 µM)
- MIC (Burkholderia cenocepacia; CF Burkholderia isolate NB28b): 16 µg/mL (≈ 37.4 µM)
- MBC (Burkholderia cenocepacia; CF Burkholderia isolate NB29): > 256 µg/mL
- MIC (Burkholderia cenocepacia; CF Burkholderia isolate NB29): 256 µg/mL (≈ 599 µM)
- MBC (Burkholderia cenocepacia; CF Burkholderia isolate NB30): 128 µg/mL (≈ 299 µM)
- MIC (Burkholderia cenocepacia; CF Burkholderia isolate NB30): 128 µg/mL (≈ 299 µM)
